According to publication PMC5218480 (PLoS ONE, 2017):

Test system: MV-4-11 cells
Test: Gene expression microarray analysis (Affymetrix PrimeView) and GSEA
Assay type: cell-based, human
Parameters: RFU PODN (11730768_x_at) / Fold change /veh PODN (11730768_x_at) / RFU LINC00158 (11744669_a_at) / Fold change /veh LINC00158 (11744669_a_at) / RFU DUSP10 (11751237_a_at) / Fold change /veh DUSP10 (11751237_a_at) / RFU ID3 (11757404_x_at) / Fold change /veh ID3 (11757404_x_at) / RFU PLEKHG5 (11737974_s_at) / Fold change /veh PLEKHG5 (11737974_s_at) / RFU LRRC4B (11730491_at) / Fold change /veh LRRC4B (11730491_at) / RFU GIMAP4 (11747438_a_at) / Fold change /veh GIMAP4 (11747438_a_at) / RFU KRT8 (11758183_x_at) / Fold change /veh KRT8 (11758183_x_at) / RFU CNN1 (11734310_a_at) / Fold change /veh CNN1 (11734310_a_at) / RFU VPS37D (11726825_at) / Fold change /veh VPS37D (11726825_at) / RFU C10orf10 (11716522_x_at) / Fold change /veh C10orf10 (11716522_x_at) / RFU KIR2DL2 /// KIR2DL4 /// KIR2DL5A /// KIR2DL5B /// KIR2DS1 /// KIR2DS2 /// KIR2DS3 /// KIR2DS4 /// KIR3DL3 /// KIR3DL3 /// KIR3DS1 (11738374_at) / Fold change /veh KIR2DL2 /// KIR2DL4 /// KIR2DL5A /// KIR2DL5B /// KIR2DS1 /// KIR2DS2 /// KIR2DS3 /// KIR2DS4 /// KIR3DL3 /// KIR3DL3 /// KIR3DS1 (11738374_at) / RFU C1QL1 (11718748_at) / Fold change /veh C1QL1 (11718748_at) / RFU TMPRSS4 (11747572_a_at) / Fold change /veh TMPRSS4 (11747572_a_at) / RFU HAMP (11756126_x_at) / Fold change /veh HAMP (11756126_x_at) / RFU RNFT2 (11725882_a_at) / Fold change /veh RNFT2 (11725882_a_at) / RFU NR4A2 (11747474_a_at) / Fold change /veh NR4A2 (11747474_a_at) / RFU ABCC12 (11746883_a_at) / Fold change /veh ABCC12 (11746883_a_at) / RFU TMEM136 (11760407_x_at) / Fold change /veh TMEM136 (11760407_x_at) / RFU CLDN22 /// WWC2 (11732394_at) / Fold change /veh CLDN22 /// WWC2 (11732394_at) / RFU HLA-DPB1 (11760878_x_at) / Fold change /veh HLA-DPB1 (11760878_x_at) / RFU SPINT1 (11716480_a_at) / Fold change /veh SPINT1 (11716480_a_at) / RFU GAP43 (11754022_s_at) / Fold change /veh GAP43 (11754022_s_at) / RFU A4GNT (11735810_at) / Fold change /veh A4GNT (11735810_at) / RFU PRB3 (11715151_x_at) / Fold change /veh PRB3 (11715151_x_at) / RFU TUBB4B (11761932_at) / Fold change /veh TUBB4B (11761932_at) / RFU CAPN14 (11732068_a_at) / Fold change /veh CAPN14 (11732068_a_at) / RFU TMCC2 (11721928_a_at) / Fold change /veh TMCC2 (11721928_a_at) / RFU IRGQ (11745062_a_at) / Fold change /veh IRGQ (11745062_a_at) / RFU FAM174B (11720279_a_at) / Fold change /veh FAM174B (11720279_a_at) / RFU TMPRSS4 (11748680_a_at) / Fold change /veh TMPRSS4 (11748680_a_at) / RFU FAM212B (11763350_a_at) / Fold change /veh FAM212B (11763350_a_at) / RFU PLEKHG5 (11743358_a_at) / Fold change /veh PLEKHG5 (11743358_a_at) / RFU ZSCAN30 (11745921_a_at) / Fold change /veh ZSCAN30 (11745921_a_at) / RFU CMKLR1 (11741424_a_at) / Fold change /veh CMKLR1 (11741424_a_at) / RFU LOC101060620 /// MAPK8IP1 (11723275_at) / Fold change /veh LOC101060620 /// MAPK8IP1 (11723275_at) / RFU SPTSSB (11747773_x_at) / Fold change /veh SPTSSB (11747773_x_at) / RFU PRSS12 (11739890_at) / Fold change /veh PRSS12 (11739890_at) / RFU BIN1 (11741810_x_at) / Fold change /veh BIN1 (11741810_x_at) / RFU WNT11 (11732464_a_at) / Fold change /veh WNT11 (11732464_a_at) / RFU C10orf10 (11716521_a_at) / Fold change /veh C10orf10 (11716521_a_at) / RFU C5orf56 (11738089_at) / Fold change /veh C5orf56 (11738089_at) / RFU CYB561 (11721691_x_at) / Fold change /veh CYB561 (11721691_x_at) / RFU ANKRD19P (11752326_a_at) / Fold change /veh ANKRD19P (11752326_a_at) / RFU OR2T12 /// OR2T33 /// OR2T8 (11738714_s_at) / Fold change /veh OR2T12 /// OR2T33 /// OR2T8 (11738714_s_at) / RFU VCAN (11748164_a_at) / Fold change /veh VCAN (11748164_a_at) / RFU JSRP1 (11732532_at) / Fold change /veh JSRP1 (11732532_at) / RFU KRTAP10-11 (11738290_x_at) / Fold change /veh KRTAP10-11 (11738290_x_at) / RFU MYO3A (11730013_a_at) / Fold change /veh MYO3A (11730013_a_at) / RFU EBF3 (11725865_a_at) / Fold change /veh EBF3 (11725865_a_at) / RFU CAMK2N1 (11719241_x_at) / Fold change /veh CAMK2N1 (11719241_x_at) / RFU C5orf56 (11738088_a_at) / Fold change /veh C5orf56 (11738088_a_at) / RFU OLFML3 (11715873_a_at) / Fold change /veh OLFML3 (11715873_a_at) / RFU LOC100653217 /// NTM (11731650_a_at) / Fold change /veh LOC100653217 /// NTM (11731650_a_at) / RFU MAPK11 (11762145_a_at) / Fold change /veh MAPK11 (11762145_a_at) / RFU FIZ1 (11724087_x_at) / Fold change /veh FIZ1 (11724087_x_at) / RFU OASL (11726364_x_at) / Fold change /veh OASL (11726364_x_at) / RFU SOX15 (11748057_x_at) / Fold change /veh SOX15 (11748057_x_at) / RFU CD79A (11719716_a_at) / Fold change /veh CD79A (11719716_a_at) / RFU HIST1H1D (11736915_at) / Fold change /veh HIST1H1D (11736915_at) / RFU CASKIN2 (11723855_a_at) / Fold change /veh CASKIN2 (11723855_a_at) / RFU LOC730098 (11760151_x_at) / Fold change /veh LOC730098 (11760151_x_at) / RFU OR4N2 (11742367_at) / Fold change /veh OR4N2 (11742367_at) / RFU PRRT2 (11749266_a_at) / Fold change /veh PRRT2 (11749266_a_at) / RFU SNX32 (11753110_a_at) / Fold change /veh SNX32 (11753110_a_at) / RFU CDHR5 (11726645_a_at) / Fold change /veh CDHR5 (11726645_a_at) / RFU RCAN1 (11760418_a_at) / Fold change /veh RCAN1 (11760418_a_at) / RFU FAM167A (11723789_a_at) / Fold change /veh FAM167A (11723789_a_at) / RFU FAM26E (11764081_at) / Fold change /veh FAM26E (11764081_at) / RFU ISYNA1 (11749810_s_at) / Fold change /veh ISYNA1 (11749810_s_at) / RFU ACY1 (11761880_at) / Fold change /veh ACY1 (11761880_at) / RFU 11764098_at / Fold change /veh 11764098_at / RFU SAMD14 (11745864_x_at) / Fold change /veh SAMD14 (11745864_x_at) / RFU NPB (11741838_a_at) / Fold change /veh NPB (11741838_a_at) / RFU TMPRSS6 (11731388_a_at) / Fold change /veh TMPRSS6 (11731388_a_at) / RFU KRTAP10-2 (11738614_at) / Fold change /veh KRTAP10-2 (11738614_at) / RFU ARHGAP8 /// PRR5-ARHGAP8 (11727945_x_at) / Fold change /veh ARHGAP8 /// PRR5-ARHGAP8 (11727945_x_at) / RFU KRTAP5-7 /// NADSYN1 (11734609_at) / Fold change /veh KRTAP5-7 /// NADSYN1 (11734609_at) / RFU RASL12 (11751679_a_at) / Fold change /veh RASL12 (11751679_a_at) / RFU CDKN2B (11736163_a_at) / Fold change /veh CDKN2B (11736163_a_at) / RFU PRF1 (11729649_at) / Fold change /veh PRF1 (11729649_at) / RFU, ZNF638 /// ZNF638-IT1 / Fold change vs veh, ZNF638 /// ZNF638-IT1 / RFU, PANK3 / Fold change vs veh, PANK3 / RFU, SH3YL1 / Fold change vs veh, SH3YL1 / RFU, ZEB2 / Fold change vs veh, ZEB2 / RFU, NRIP1 / Fold change vs veh, NRIP1 / RFU, PTTG1IP / Fold change vs veh, PTTG1IP / RFU, CAPN2 / Fold change vs veh, CAPN2 / RFU, MED14 / Fold change vs veh, MED14 / RFU, SNORA58 / Fold change vs veh, SNORA58 / RFU, C1orf63 / Fold change vs veh, C1orf63 / RFU, LRRFIP1 / Fold change vs veh, LRRFIP1 / RFU, NDUFAF7 / Fold change vs veh, NDUFAF7 / RFU, SLC12A2 / Fold change vs veh, SLC12A2 / RFU, IBTK / Fold change vs veh, IBTK / RFU, ESF1 / Fold change vs veh, ESF1 / Fold change vs veh, TMEM50B / RFU, TAOK1 / Fold change vs veh, TAOK1 / RFU, ACBD3 / Fold change vs veh, ACBD3 / RFU, TMA16 / Fold change vs veh, TMA16 / RFU, RWDD3 / Fold change vs veh, RWDD3 / RFU, BCAT1 / Fold change vs veh, BCAT1 / RFU, EDEM3 / Fold change vs veh, EDEM3 / RFU, TMEM33 / Fold change vs veh, TMEM33 / RFU, WDR75 / Fold change vs veh, WDR75 / RFU, AHCTF1 / Fold change vs veh, AHCTF1 / RFU, TFRC / Fold change vs veh, TFRC / RFU, ZDHHC17 / Fold change vs veh, ZDHHC17 / RFU, NOM1 / Fold change vs veh, NOM1 / RFU, ARL8B / Fold change vs veh, ARL8B / RFU, ZBTB11 / Fold change vs veh, ZBTB11 / RFU, TAMM41 / Fold change vs veh, TAMM41 / RFU, KIAA1704 /// LOC100996395 / Fold change vs veh, KIAA1704 /// LOC100996395 / RFU, ING1 / Fold change vs veh, ING1 / RFU, TRMT61B / Fold change vs veh, TRMT61B / RFU, FUBP3 / Fold change vs veh, FUBP3 / RFU, TP53 / Fold change vs veh, TP53 / RFU, TNKS2 / Fold change vs veh, TNKS2 / RFU, ZFP14 / Fold change vs veh, ZFP14 / RFU, ACTR2 / Fold change vs veh, ACTR2 / RFU, PPP3R1 / Fold change vs veh, PPP3R1 / RFU, PIK3R1 / Fold change vs veh, PIK3R1 / RFU, HNRNPA1 / Fold change vs veh, HNRNPA1 / RFU, RNF170 / Fold change vs veh, RNF170 / RFU, ZNF28 / Fold change vs veh, ZNF28 / RFU, RNGTT / Fold change vs veh, RNGTT / RFU, OGT / Fold change vs veh, OGT / RFU, BRD1 / Fold change vs veh, BRD1 / RFU, MARS / Fold change vs veh, MARS / RFU, ZNF655 / Fold change vs veh, ZNF655 / RFU, FAHD1 / Fold change vs veh, FAHD1 / RFU, BDP1 / Fold change vs veh, BDP1 / RFU, LRRCC1 / Fold change vs veh, LRRCC1 / RFU, ARID1A / Fold change vs veh, ARID1A / RFU, ZNF146 / Fold change vs veh, ZNF146 / RFU, ZNF330 / Fold change vs veh, ZNF330 / RFU, GPN3 / Fold change vs veh, GPN3 / RFU, C9orf123 / Fold change vs veh, C9orf123 / RFU, N4BP2L2 / Fold change vs veh, N4BP2L2 / RFU, ARFIP1 / Fold change vs veh, ARFIP1 / RFU, FAM179B / Fold change vs veh, FAM179B / RFU, BCL10 / Fold change vs veh, BCL10 / RFU, UHRF1BP1L / Fold change vs veh, UHRF1BP1L / RFU, BET1 / Fold change vs veh, BET1 / RFU, CNOT2 / Fold change vs veh, CNOT2 / RFU, ZNF268 / Fold change vs veh, ZNF268 / Fold change vs veh, ZNF507 / RFU, DGCR2 / Fold change vs veh, DGCR2 / RFU, WDSUB1 / Fold change vs veh, WDSUB1 / Fold change vs veh, HSP90B1 /// MIR3652 / RFU, ADSS / Fold change vs veh, ADSS / RFU, GK / Fold change vs veh, GK / RFU, ZNF148 / Fold change vs veh, ZNF148 / RFU, TAF9 / Fold change vs veh, TAF9 / RFU, SLC1A5 / Fold change vs veh, SLC1A5 / RFU, SLMO2 / Fold change vs veh, SLMO2 / RFU, ABCC4 / Fold change vs veh, ABCC4 / RFU, LOC101060439 /// RAP1B / Fold change vs veh, LOC101060439 /// RAP1B / RFU, RFX7 / Fold change vs veh, RFX7 / RFU, GTPBP10 / Fold change vs veh, GTPBP10 / RFU, CNEP1R1 / Fold change vs veh, CNEP1R1 / RFU, BIVM-ERCC5 /// ERCC5 / Fold change vs veh, BIVM-ERCC5 /// ERCC5 / RFU, ILF3 / Fold change vs veh, ILF3 / RFU 11762660_at / Fold change /veh 11762660_at / RFU VCAN (11757783_s_at) / Fold change /veh VCAN (11757783_s_at) / RFU DDX43 (11728927_at) / Fold change /veh DDX43 (11728927_at) / RFU KRT8 (11758188_x_at) / Fold change /veh KRT8 (11758188_x_at) / RFU NKD1 (11759106_at) / Fold change /veh NKD1 (11759106_at) / RFU SRD5A1 (11742802_a_at) / Fold change /veh SRD5A1 (11742802_a_at) / RFU TPSAB1 /// TPSB2 (11721975_s_at) / Fold change /veh TPSAB1 /// TPSB2 (11721975_s_at) / RFU GSTM3 (11746129_a_at) / Fold change /veh GSTM3 (11746129_a_at) / RFU IL23R (11737362_x_at) / Fold change /veh IL23R (11737362_x_at) / RFU TMEM51 (11727254_a_at) / Fold change /veh TMEM51 (11727254_a_at) / RFU PIWIL2 (11732686_x_at) / Fold change /veh PIWIL2 (11732686_x_at) / RFU ORM1 (11744905_x_at) / Fold change /veh ORM1 (11744905_x_at) / RFU CCDC152 (11743942_at) / Fold change /veh CCDC152 (11743942_at) / RFU ECM1 (11717891_a_at) / Fold change /veh ECM1 (11717891_a_at) / RFU IL23R (11748794_a_at) / Fold change /veh IL23R (11748794_a_at) / RFU TNFAIP8L3 (11732012_x_at) / Fold change /veh TNFAIP8L3 (11732012_x_at) / RFU MBOAT4 (11741988_at) / Fold change /veh MBOAT4 (11741988_at) / RFU 11764193_at / Fold change /veh 11764193_at / RFU TMEM53 (11763286_at) / Fold change /veh TMEM53 (11763286_at) / RFU MAGEB2 (11727129_at) / Fold change /veh MAGEB2 (11727129_at) / RFU TMEM200A (11744735_a_at) / Fold change /veh TMEM200A (11744735_a_at) / RFU CCDC152 (11751479_a_at) / Fold change /veh CCDC152 (11751479_a_at) / RFU FAM211A (11726209_a_at) / Fold change /veh FAM211A (11726209_a_at) / RFU RGS16 (11746705_a_at) / Fold change /veh RGS16 (11746705_a_at) / RFU VCAN (11755009_s_at) / Fold change /veh VCAN (11755009_s_at) / RFU RHOB (11743442_s_at) / Fold change /veh RHOB (11743442_s_at) / RFU RGS16 (11720943_a_at) / Fold change /veh RGS16 (11720943_a_at) / RFU RGS16 (11720944_at) / Fold change /veh RGS16 (11720944_at) / RFU, VPS4B / Fold change vs veh, VPS4B / RFU, CREB1 / Fold change vs veh, CREB1 / RFU, DNAJC13 / Fold change vs veh, DNAJC13 / RFU, GNAQ / Fold change vs veh, GNAQ / RFU, CDK5R1 / Fold change vs veh, CDK5R1 / RFU, ZRANB3 / Fold change vs veh, ZRANB3 / RFU, CUL4A / Fold change vs veh, CUL4A / RFU, CCNY / Fold change vs veh, CCNY / RFU, UFL1 / Fold change vs veh, UFL1 / RFU, COG3 / Fold change vs veh, COG3 / RFU, DIAPH2 / Fold change vs veh, DIAPH2 / RFU, SKA2 / Fold change vs veh, SKA2 / RFU, AFF3 / Fold change vs veh, AFF3 / RFU, LMF1 / Fold change vs veh, LMF1 / RFU, IPO11 / Fold change vs veh, IPO11 / RFU, DFFB / Fold change vs veh, DFFB / RFU, FOXP1 / Fold change vs veh, FOXP1 / RFU, CARD8 / Fold change vs veh, CARD8 / RFU, STRN3 / Fold change vs veh, STRN3 / RFU, ADK / Fold change vs veh, ADK / RFU, RASSF2 / Fold change vs veh, RASSF2 / RFU, WIPF1 / Fold change vs veh, WIPF1 / RFU, LARP1B / Fold change vs veh, LARP1B / RFU, RASA1 / Fold change vs veh, RASA1 / RFU, RB1 / Fold change vs veh, RB1 / RFU, PPFIA1 / Fold change vs veh, PPFIA1 / RFU, MAT2A / Fold change vs veh, MAT2A / RFU, CCT5 / Fold change vs veh, CCT5 / RFU, WDR92 / Fold change vs veh, WDR92 / RFU, CUX1 / Fold change vs veh, CUX1 / RFU, TTC7A / Fold change vs veh, TTC7A / RFU, TMEM135 / Fold change vs veh, TMEM135 / RFU, DEPTOR / Fold change vs veh, DEPTOR / RFU, CPM / Fold change vs veh, CPM / RFU, DNAJB6 / Fold change vs veh, DNAJB6 / RFU, CACNA2D3 / Fold change vs veh, CACNA2D3 / RFU, DTX4 / Fold change vs veh, DTX4 / RFU, TFCP2 / Fold change vs veh, TFCP2 / RFU, GMCL1 /// GMCL1P1 / Fold change vs veh, GMCL1 /// GMCL1P1 / RFU, AEBP2 / Fold change vs veh, AEBP2 / RFU, SNHG1 /// SNORD22 /// SNORD25 /// SNORD26 /// SNORD27 /// SNORD28 /// SNORD29 /// SNORD31 / Fold change vs veh, SNHG1 /// SNORD22 /// SNORD25 /// SNORD26 /// SNORD27 /// SNORD28 /// SNORD29 /// SNORD31 / Fold change (Aza/veh), C12orf56 (ProbeSet 11735607_a_at) / Fold change (ACY-1035/veh), C12orf56 (ProbeSet 11735607_a_at) / Fold change (Aza/veh), FGFR1OP (ProbeSet 11751329_s_at) / Fold change (ACY-1035/veh), FGFR1OP (ProbeSet 11751329_s_at) / Fold change (Aza/veh), VPS36 (ProbeSet 11739960_a_at) / Fold change (ACY-1035/veh), VPS36 (ProbeSet 11739960_a_at) / RFU SYPL1 (11715823_x_at) / Fold change /veh SYPL1 (11715823_x_at) / RFU IGFBP7 (11715501_s_at) / Fold change /veh IGFBP7 (11715501_s_at) / RFU REEP3 (11722064_at) / Fold change /veh REEP3 (11722064_at) / RFU IGLL1 (11728026_x_at) / Fold change /veh IGLL1 (11728026_x_at): dose or concentration left out as unconfirmed
Conditions: ProbeSet 11744854_x_at; LIST B

Nc1ccc(-c2cccs2)cc1NC(=O)c1ccc2c(c1)cc(C1CC1)n2CCN1CCOCC1 [ACY-1035]
Fold change vs veh, ZNF28: 0.85
